Data published in US20180289763A1, “COMPOSITION CONTAINING HERBAL MEDICINE EXTRACTS OF PINELLIA AND SCUTELLARIA FOR REDUCING SIDE EFFECTS DUE TO ANTICANCER DRUGS” (COMPREHENSIVE AND INTEGRATIVE MEDICINE INSTITUTE, priority 2013, published 2018).
Marks after values point to notes of the source that are not given here.

What was measured:
[1] = system: gastrin immunoreactive cells; assay: Gastrin immunoreactive cells in pyloric mucosa; format: in vivo, rat
Source text: As a result of observing histopathological changes, the numbers of gastrin and serotonin immunoreactive cells in the pyloric mucosa and the number of serotonin immunoreactive cells in the colonic mucosa that were detected are shown in Table 9.
Meanwhile, in the ondansetron administered group, a change in the number of gastrin immunoreactive cells in the pyloric mucosa similar to that in the cisplatin control was shown (Table 9, and FIG. 8).

[2] = system: cisplatin-induced gastrointestinal motility disorder; assay: Fecal parameters (pellet number, wet and dry weight, water content); format: in vivo, rat; settings: for Fecal Dry-weight / Fecal Water content / Fecal Wet-weight / Fecal pellet number: feces of 24 hours
gastrin = assay: Gastrin content in pyloric tissues; format: in vivo, rat
Source text: Meanwhile, in the ondansetron administered group, a change in pylorus gastrin content similar to that in the cisplatin control was shown (FIG. 4(A)).

[3] = system: fundus antioxidant defense system; assay: Fundus antioxidant defense system (MDA, GSH, CAT, SOD); format: in vivo, rat
Source text: Changes in MDA content, GSH content, SOD activity, and CAT activity in the fundus in each group that were observed are shown in Table 6.

[4] = system: serotonin immunoreactive cells; assay: Serotonin immunoreactive cells in pyloric and colonic mucosa; format: in vivo, rat
Method: (§1) In the examples, to provide an integrated medical method to reduce side effects caused by a chemotherapeutic agent with respect to a patient with a neoplastic disease, an effect of co-administration of a Pinelliae Rhizoma and Scutellariae Radix extract with respect to a digestive motility disorder caused by the chemotherapeutic agent was examined. In the following examples, rats with a gastrointestinal motility disorder caused by cisplatin were used. 2 mg/kg of cisplatin was administered once a week for 5 weeks, each of 200, 100 and 50 mg/kg of the Pinelliae Rhizoma and Scutellariae Radix extracts were administered at 14 days from the fourth administration of cisplatin, influences on gastrointestinal motility, damage to a digestive tract mucosa and physiology of digestive tract endocrine cells were observed as well as an antioxidative effect, experimental results were compared to an ondansetron 1 mg/kg administered group, wherein the ondansetron was known as a representative 5-HT3 receptor blocking agent to have an effective effect on a cisplatin-induced gastrointestinal motility disorder.
(§2) In this example, as laboratory animals, Sprague-Dawley, Slc: SD rats (6-week-old males, SLC, Shizuoka, Japan) were used. 60 healthy SPF rats were purchased, acclimated for 14 days, and 8 laboratory animals having uniform body weights (intact control: 249.13±12.12 g, 232˜264 g; cisplatin treated group: 225.35±10.58 g, 206˜243 g) when fasting after three weeks of cisplatin administration per each group were selected to be used in the experiment. […] All of the laboratory animals underwent fasting for about 18 hours at each of the first treatment of cisplatin, the first drug administration and the final necropsy (even in this period, drinking water was freely provided), individuals were identified using picric acid.
(§3) To cause a gastrointestinal motility disorder, 2 mg/kg of cisplatin (Sigma-Aldrich, St. Louise, Mo., USA) was dissolved in a saline solution, and the resulting solution was intraperitoneally administered at a dose of 1 ml/kg once a week for 5 weeks, thereby causing a chronic gastrointestinal motility disorder, and in the normal vehicle control, the same dose of a saline solution, instead of cisplatin, was intraperitoneally administered by the same method.
(§4) A Pinelliae Rhizoma and Scutellariae Radix herbal medicine was dissolved in sterile distilled water at a dose of 5 ml/kg (a body weight of the animal) three weeks after the first cisplatin administration, and forcibly and orally administered with a 5 ml syringe equipped with a metal zonde 30 minutes after the fourth cisplatin administration once a day for 14 days. The ondansetron was dissolved in a saline solution, subcutaneously administered with the same frequency as the Pinelliae Rhizoma and Scutellariae Radix herbal medicine at a dose of 1 ml/kg, and in the normal vehicle and cisplatin controls, instead of the Pinelliae Rhizoma and Scutellariae Radix extract or ondansetron, only the same dose of sterile distilled water was orally administered.
(§5) An effect on the gastrointestinal motility was evaluated by evaluating a charcoal transit ratio in the small intestine, effects on constipation were evaluated by observing a body weight, the change in fecal parameters (the fecal pellet number, the fecal weight, and the water content in the feces), the histopathological changes in the colon containing fecal pellets—changes in fecal pellet surface mucosa thickness, mucous producing cell number per mm2 of the mucosa and average mucosa thickness.

[5] = system: cisplatin-induced gastrointestinal motility disorder; assay: Charcoal transit ratio in small intestine (gastrointestinal motility); format: in vivo, rat; settings: for Distance charcoal meal transferred / GI charcoal transit ratio: during 30 min
Source text: Also, permeation of a substance through the digestive tract represents the motility in the entire gastrointestinal tract, measurement of a charcoal transit ratio in the small intestine is known to be very useful to diagnose whether or not there is a problem in digestive motility (Wintola et al., 2010), and a decrease in the charcoal transit ratio in the small intestine indicates a decrease in digestive motility such as the fecal retention, that is, constipation (Sagar et al., 2005; Meite et al., 2010).
A total length of a small intestine and a distance that a charcoal meal was transferred in the small intestine were measured, and the charcoal transit ratio was calculated, and then the results are shown in Table 4.

[6] = Body weight and body weight gain in cisplatin-treated rats; format: in vivo, rat
Method: Body weights and body weight gains in each group that were measured after the first and fourth administrations of cisplatin and the necropsy are shown in Table 3.

serotonin = assay: Serotonin content in pyloric tissues; format: in vivo, rat
Source text: Meanwhile, in the ondansetron administered group, a change in pylorus serotonin content similar to that in the cisplatin control was shown (FIG. 4(B)).

[7] = system: cisplatin-induced gastrointestinal tract damage (fundic and pyloric mucosa); assay: Histopathology of fundus and pylorus (mucosa thickness, degenerative mucosa percentage)
Method: as §1, §2, §3, §4, §5

tryptophan hydroxylase = assay: Pylorus tryptophan hydroxylase activity; format: in vivo, rat
Source text: Meanwhile, in the ondansetron administered group, a change in tryptophan hydroxylase activity similar to that in the cisplatin control was shown (FIG. 3(A)).

monoamine oxidase = assay: Pylorus monoamine oxidase activity; format: in vivo, rat
Method: Compared to the normal vehicle control, in the cisplatin control, a significant (p<0.01) decrease in activity of a serotonin lyase, monoamine oxidase, in pyloric tissues was shown, but in the Pinelliae Rhizoma and Scutellariae Radix extract 200, 100 and 5 mg/kg administered groups, compared to the cisplatin control, significant (p<0.01) increases in monoamine oxidase activity in pyloric tissues were dose-dependently shown. Meanwhile, in the ondansetron administered group, a change in monoamine oxidase activity similar to that in the cisplatin control was shown (FIG. 3(B)).

[8] = system: cisplatin-induced colonic mucosa atrophy; format: in vivo, rat; settings: 1 mg/kg s.c., 14 days
Source text: In the cisplatin control, considerable decreases in the mucous producing cell number per unit area (mm^2) and fecal pellet surface mucous thickness were caused along with the atrophy of the total colonic mucosa containing fecal pellets, and thus, compared to the normal vehicle control, significant (p<0.01) decreases in fecal pellet-containing colonic mucosa thickness, the mucous producing cell number in the mucosa and fecal pellet surface mucous thickness were shown.

[9] = cisplatin 2 mg/kg i.p. once a week for 5 weeks
[10] = cisplatin control (2 mg/kg i.p. weekly) compared to the normal vehicle control
[11] = cisplatin control (2 mg/kg i.p. weekly) compared to the normal vehicle control, 33 to 34 days after first cisplatin
[12] = 1 mg/kg s.c., 14 days, cisplatin-treated rats
[13] = 1 mg/kg s.c., 14 days, compared to the cisplatin control
[14] = cisplatin-treated rats, at sacrifice
[15] = compared to the cisplatin control

Compound: N.N.[Cl][Pt][Cl] [Cisplatin, cis-diaminedichloroplatinum II]
- Number of Gastrin-IR cells in the pyloric mucosa [1, 9]: 11.75 ± 3.77^d cells/mm^2 of mucosa
- change of number of gastrin immunoreactive cells per unit area of the pyloric mucosa [1, 10]: −86.42%
- Fecal Dry-weight [2, 9]: 5.14 ± 1.51 g
- Fecal Water content [2, 9]: 32.86 ± 6.45^d %
- Fecal Wet-weight [2, 9]: 7.66 ± 2.14^a g
- Fecal pellet number ([2]; cisplatin 2 mg/kg i.p. once a week for 5 weeks, 33 to 34 days after first cisplatin): 15.75 ± 5.50^a
- change of average dry weight of feces for 24 hours [2, 11]: −7.30%
- change of average water content in feces excreted for 24 hours [2, 11]: −54.47%
- change of average wet weight of the feces excreted for 24 hours [2, 11]: −62.34%
- change of total number of fecal pellets excreted for 24 hours [2, 11]: −61.23%
- change of gastrin content in pyloric tissues at the final sacrifice (gastrin; [10]): −59.22%
- Fundus Catalase [3, 9]: 44.06 ± 8.98^a nM/mim/mg tissue
- Fundus Glutathione [3, 9]: 1.22 ± 0.40^d μM/mg tissue
- Fundus Malondialdehyde [3, 9]: 16.24 ± 2.27^a nM/g tissue
- Fundus Superoxide dismutase [3, 9]: 71.96 ± 15.54^a nM/mim/mg tissue
- change of CAT activity in fundus tissues at the final sacrifice [3, 10]: −55.83%
- change of GSH content in the fundus tissue at the final sacrifice [3, 10]: −72.46%
- change of MDA content in fundus tissues at the final sacrifice [3, 10]: 327.30%
- change of SOD activity in the fundus tissue at the final sacrifice [3, 10]: −56.87%
- Number of Serotonin-IR cells in the colonic mucosa [4, 9]: 73.75 ± 11.79^a cells/mm^2 of mucosa
- Number of Serotonin-IR cells in the pyloric mucosa [4, 9]: 65.38 ± 11.02^a cells/mm^2 of mucosa
- change of number of serotonin immunoreactive cells per unit area of the colonic mucosa [4, 10]: 514.58%
- change of number of serotonin immunoreactive cells per unit area of the pyloric mucosa [4, 10]: 530.12%
- Distance charcoal meal transferred [5, 9]: 45.00 ± 11.08^a cm
- GI charcoal transit ratio [5, 9]: 35.61 ± 8.66^a %
- change of charcoal transit ratio in the small intestine [5, 10]: −53.09%
- change of distance that the charcoal meal was transferred in the small intestine [5, 10]: −53.06%
- Body weight Sacrifice [C] [6, 9]: 195.13 ± 12.96^a g
- Body weight gain Test article dosing periods [C − B] [6, 9]: −29.88 ± 3.04^d g
- Body weight gain Total experiment periods [C − A] [6, 9]: −4.00 ± 7.01^d g
- Body weight At 4th cisplatin treatment [B] ([6]; cisplatin 2 mg/kg i.p. once a week, three weeks after first administration): 225.00 ± 13.90^a g
- change of body weight gain during the total 5-week experiment [6, 10]: −107.34%
- change of body weight gain for 2 weeks after the drug administration [6, 10]: −896.67%
- change of serotonin content in pyloric tissues at the final sacrifice (serotonin; [10]): 279.57%
- Fundus Degenerative mucosa percentage [7, 9]: 54.89 ± 10.97^d %/mucosa
- Fundus Total mucosa thickness [7, 9]: 436.02 ± 87.18^a μm
- Pylorus Degenerative mucosa percentage [7, 9]: 68.26 ± 10.44^a %/mucosa
- Pylorus Total mucosa thickness [7, 9]: 146.12 ± 26.03^a μm
- change of average fundic mucosa thickness [7, 10]: −47.53%
- change of pylorus average mucosa thickness [7, 10]: −61.72%
- change of tryptophan hydroxylase activity in pyloric tissues at the final sacrifice (tryptophan hydroxylase; [10]): 184.55%
- change of monoamine oxidase activity in pyloric tissues at the final sacrifice (monoamine oxidase; [10]): −68.47%

Compound: Cc1nccn1CC1CCc2c(c3ccccc3n2C)C1=O (centres unmarked) [Ondansetron, ondansetron]
- Number of Gastrin-IR cells in the pyloric mucosa [1, 12]: 11.63 ± 3.70^d cells/mm^2 of mucosa
- change of number of gastrin immunoreactive cells per unit area of the pyloric mucosa [1, 13]: −1.06%
- Fecal Dry-weight [2, 12]: 5.27 ± 1.10 g
- Fecal Water content [2, 12]: 55.32 ± 13.07^ef %
- Fecal Wet-weight [2, 12]: 12.55 ± 3.71^ab g
- Fecal pellet number [2, 12]: 25.38 ± 6.95^ac
- change of average dry weight of feces for 24 hours [2, 13]: 2.48%
- change of average water content in feces excreted for 24 hours [2, 13]: 68.34%
- change of average wet weight of the feces excreted for 24 hours [2, 13]: 63.91%
- change of total number of fecal pellets excreted for 24 hours [2, 13]: 61.11%
- change of gastrin content in pyloric tissues at the final sacrifice (gastrin; [13]): −3.05%
- Fundus Catalase [3, 12]: 63.48 ± 12.39^ac nM/mim/mg tissue
- Fundus Glutathione [3, 12]: 1.81 ± 0.17^de μM/mg tissue
- Fundus Malondialdehyde [3, 12]: 9.67 ± 1.93^ac nM/g tissue
- Fundus Superoxide dismutase [3, 12]: 103.00 ± 22.32^ac nM/mim/mg tissue
- change of CAT activity in fundus tissues at the final sacrifice [3, 13]: 44.10%
- change of GSH content in the fundus tissue at the final sacrifice [3, 13]: 48.11%
- change of MDA content in fundus tissues at the final sacrifice [3, 13]: −40.45%
- change of SOD activity in the fundus tissue at the final sacrifice [3, 13]: 43.13%
- Colonic mucosa thickness [8, 14]: 192.08 ± 27.34^ac μm
- Fecal pellet surface mucous thickness [8, 14]: 28.00 ± 6.98^df μm
- Mucous producing cell number [8, 14]: 306.63 ± 78.94^ac cells/mm^2
- change of fecal pellet surface mucous thickness in the colon [8, 15]: 239.94%
- change of fecal pellet-containing colon average mucosa thickness [8, 15]: 72.06%
- change of mucous producing cell number in the colonic mucosa [8, 15]: 126.92%
- Number of Serotonin-IR cells in the colonic mucosa [4, 12]: 73.00 ± 17.65^a cells/mm^2 of mucosa
- Number of Serotonin-IR cells in the pyloric mucosa [4, 12]: 64.00 ± 10.45^a cells/mm^2 of mucosa
- change of number of serotonin immunoreactive cells per unit area of the colonic mucosa [4, 13]: −1.02%
- change of number of serotonin immunoreactive cells per unit area of the pyloric mucosa [4, 13]: −2.10%
- Distance charcoal meal transferred [5, 12]: 65.13 ± 10.68^ac cm
- GI charcoal transit ratio [5, 12]: 50.80 ± 8.85^ac %
- change of charcoal transit ratio in the small intestine [5, 13]: 42.66%
- change of distance that the charcoal meal was transferred in the small intestine [5, 13]: 44.72%
- Body weight Sacrifice [C] [6, 12]: 212.38 ± 4.66^ab g
- Body weight gain Test article dosing periods [C − B] [6, 12]: −14.50 ± 5.68^de g
- Body weight gain Total experiment periods [C − A] [6, 12]: 14.50 ± 11.64^de g
- change of body weight gain during the total 5-week experiment [6, 13]: 463.50%
- change of body weight gain for 2 weeks after the drug administration [6, 13]: 52.46%
- change of serotonin content in pyloric tissues at the final sacrifice (serotonin; [13]): −4.04%
- Fundus Degenerative mucosa percentage [7, 12]: 35.42 ± 4.69^de %/mucosa
- Fundus Total mucosa thickness [7, 12]: 592.37 ± 51.61^ac μm
- Pylorus Degenerative mucosa percentage [7, 12]: 41.08 ± 10.77^ac %/mucosa
- Pylorus Total mucosa thickness [7, 12]: 240.01 ± 36.08^ac μm
- change of average fundic mucosa thickness [7, 13]: 35.86%
- change of pylorus average mucosa thickness [7, 13]: 64.25%
- change of tryptophan hydroxylase activity in pyloric tissues at the final sacrifice (tryptophan hydroxylase; [13]): −4.35%
- change of monoamine oxidase activity in pyloric tissues at the final sacrifice (monoamine oxidase; [13]): 5.05%
